Legend:
HEK293T cells [1] = assay: Cell proliferation assay (WST-1), cellular toxicity of adjuvants; type: cell-based, human
Procedure: In 6-well plates, triplicates of 2×10^5 cells per well were seeded and treated with defined adjuvant concentrations ranging from 1 μg/ml to 1000 μg/ml. After 24 hours incubation (at 37° C. with 5% C02) the medium was exchanged with fresh medium and cells were incubated for additional 48 hours. Cell proliferation was determined with the WST-1 colorimetric cell proliferation assay (Roche), according to manufacturer's instructions. Shortly, cells were trypsinized following 100 μl cell incubation with 10 μl WST-1 substrate (at 37° C. with 5% C02) for 2 hours. The assay was performed in 96-well microtiter plates and absorbance was determined at 490 nm using a TECAN-Infinite microplate reader (TECAN).
From potential adjuvant substances for lentiviral gene delivery we selected five representatives from the class of polycation-like and seven from the class of poloxamer-like chemical substances (Tab. 1). HEK293T cells were co-incubated with defined substance concentration for 24 hours, than medium was changed and cells were incubated for additional 48 hours prior measurements of cell proliferation. To test specific HEK293T growth inhibition by different substances we measured incorporation of WST1 substrate and correlated to control cell population without any substance co-incubation (FIG. 1). […]

HEK293T cells [2] = assay: Adjuvant-assisted lentiviral (GFP) gene transfer into HEK293T cells, flow cytometry; type: cell-based, human
Procedure: HEK293T cells (2×10^5 cells per well) were covered with 1 ml medium containing lentivirus (GP) with or without adjuvants. […] In given case, plates were centrifuged at 1,000 g for 60 min. After 24 hours incubation (at 37° C. with 5% CO2) the supernatant was exchanged with fresh medium and incubated for additional 48 hours. Combined microscopic analysis and documentation was done after 48 hours post infection (HBO 50/AC and AxioCam MRC, Carl Zeiss AG). […] Plates were centrifuged at 800 g for 90 min.
After lentiviral transduction, cells were washed in PBS and resuspended in PBS with 1 μg/mi propidium iodide (Invitrogen). After 10 min incubation on ice, 30,000 events were analyzed for forward/sideward scatter characteristics, green fluorescence light emission at 530 nm and red fluorescence light emission at 610 nm in FACSDiva (BD Biosciences).
HEK293T cells were covered (for 24 hours) with a mixture of LV with specified adjuvant in a maximum tolerable concentration (1000 μg/ml). LV carrying a CopGFP-coding transgene were applied in decreasing MOI from 2.5 to 0.0025. After medium change, cells were cultivated for another 48 hours and measured for green fluorescent light emission by flow cytometry.
HEK293T cells were covered (for 24 hours) with a mixture of LV as used in example 3 with specified adjuvant up to a maximum applied concentration of 5000 μg/ml Synperonic F108. […]

Structure (SMILES)	cell proliferation / cellular viability (HEK293T cells [1]; 1000 μg/ml, FIG. 1)	transduction efficiency (in words) (HEK293T cells [2]; MOI 2.5, polybrene 10 μg/ml, others 1000 μg/ml, FIG. 2)	transduction/infection compared with polybrene-assisted LV infection (in words) (HEK293T cells [2]; polybrene 10 μg/ml, others 1000 μg/ml and above)	cell proliferation / toxicity (HEK293T cells [1]; increasing concentrations above 10 μg/ml, FIG. 1a)
CCCCCCCC/C=C\CCCCCCCC(=O)OC[C@H](COP(=O)(O)OCCN)OC(=O)CCCCCCC/C=C\CCCCCCCC [PEA, L-α-Phosphatidyl-ethanolamine-dioleoyl]	remained non-toxic	low transduction rates	failed to further increase this transduction level	–
CC(C)CCC[C@@H](C)[C@H]1CC[C@H]2[C@@H]3CC=C4C[C@@H](OC(=O)NCCN(C)C)CC[C@]4(C)[C@H]3CC[C@]12C.Cl [Cholesterylcarbamate, Cholesteryl-3β-N-(dimethyl-amino-ethyl)-carbamate-hydrochloride]	–	–	–	massive reduction in cell proliferation

— US12385066B2, “Retroviral transduction using poloxamers” (HELMHOLTZ ZENTRUM MUNCHEN—DEUTSCHES FORSCHU[…] GESUNDHEIT …, priority 2012, dated 2025)
